The record followed here is patent US12011474B2, “Composition comprising a mixture of molecules extracted from Chrysanthellum indicum, Cynara scolymus and Lycium barbarum and use to act on carbohydrate and/or fat metabolism” (VALBIOTIS, priority 2015, dated 2024).

The subject of the assay is db/db mice. Briefly: Fasting blood glucose in db/db mice. The class given is in vivo. As to conditions: same db/db model, separate experiment with younger mice, control group 414 mg/dL.

Excerpt: The experiments were done on db/db mice.
The experimental time was 9 weeks with a “Run-in” of 1 week followed by 8 weeks of supplementation with the plant extracts and a composition X. The male mice were 10 weeks old at the beginning of treatment.
The experimental assessments in particular pertained to: • The measurement of the serous lipids (total cholesterol, LDL cholesterol, triglycerides); • The evolution of the blood glucose during an oral sensitivity test to insulin. This test consisted of an intraperitoneal injection of insulin (2 U/kg) on an empty stomach. The evolution of the blood glucose in response to the insulin injection was measured in the tail by biopsy just before the injection (t0), then after 30, 60, 90 and 120 minutes. The area under the curve (AUC) was calculated. A decrease in the AUC reflects a better response to the insulin injection, and therefore improved insulin sensitivity. Conversely, an increase in the AUC reflects a lower quality sensitivity to the insulin, and therefore insulin resistance; • The measurement of the fasting blood glucose.
The evaluations presented were done just before the supplementation (t=0) and at the end of supplementation (t=8 weeks).

Consider `CN(C)C(=N)N=C(N)N` [metformin], for which the Fasting blood glucose came out at 463 mg/d L and the “Increase of fasting blood glucose versus control group” value was 11%.
